Consider 10 compounds from patent US20240294551A1 (AMGEN INC., priority 2022, published 2024).

Test [1] addresses His-tagged KRAS G12D protein (Homo sapiens (Human), UniProt P01116, G12D). The test can be described thus: KRAS G12D TR-FRET Assay. Format: binding. In a few lines:
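Each incubation ran at room temperature: enzyme with compound for 30 minutes, peptide for one hour, and detection reagents (0.4 nM europium anti-6×His, 5 nM streptavidin-d2) for one hour more. Protein and peptide stocks were each diluted to 20 nM before addition.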

Test [2] addresses GDP-bound KRAS protein (aa 1-169), containing both G12D and C118A amino acid substitutions (Homo sapiens (Human), UniProt P01116, C118A/G12D). The test can be described thus: KRAS G12D Coupled Nucleotide Exchange Assay. Type of test: biochemical.
[3] abbreviates: read-out: KRAS G12D Binding IC50.
The mark [4] stands for this setting: read-out: KRAS G12D Coupled Exchange IC50.
The mark [5] stands for this setting: TR-FRET, read-out: KRAS G12D Binding.
[6] abbreviates: 2 hours compound pre-incubation, read-out: KRAS G12D Coupled Exchange.

pIC50: −log10 of the molar value. Read-outs that look alike come from different tables or passages of the source.

GDP-bound KRAS protein (aa 1-169), containing both G12D and C118A amino acid substitutions, sequence (P01116 other isoform, or with tags, fused parts or gaps G12D/C118A): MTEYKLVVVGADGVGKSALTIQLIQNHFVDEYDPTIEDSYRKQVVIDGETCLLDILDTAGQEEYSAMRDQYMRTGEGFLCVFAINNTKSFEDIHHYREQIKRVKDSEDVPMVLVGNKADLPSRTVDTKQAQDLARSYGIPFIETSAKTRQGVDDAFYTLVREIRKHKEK
His-tagged KRAS G12D protein, sequence (P01116 other isoform, or with tags, fused parts or gaps G12D): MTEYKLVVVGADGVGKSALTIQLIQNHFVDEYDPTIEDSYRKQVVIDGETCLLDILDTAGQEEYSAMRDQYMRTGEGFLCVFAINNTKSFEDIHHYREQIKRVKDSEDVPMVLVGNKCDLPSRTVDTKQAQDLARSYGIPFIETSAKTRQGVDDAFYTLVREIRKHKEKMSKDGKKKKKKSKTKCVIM

For the compound `O=C1OCCCCc2c(Cl)cc3[nH]ncc3c2-c2ncc3c(nc(OC[C@@]45CCCN4C[C@H](F)C5)nc3c2F)N2CCOC[C@H](C2)O1` [Example 324, (27S)-18-chloro-33-fluoro-4-(((2R,7aS)-2-fluorotetrahydro-1H-pyrrolo[1,2-a]pyrrol-7a(5H)-yl)methoxy)-24,26,29-trioxa-1,3,5,9,14,15-hexaazahexacyclo[25.4.1.1~6,10~.0~2,7~.0~11,19~.0~12,16~]tritriaconta-2,4,6,8,10(33),11,13,16,18-nonaen-25-one], the pIC50 in test [1] (setting [3]) is 7.21; in test [2] (setting [4]), 7.38.
For the compound `CN(C)CC1(COc2nc3c4cnc(c(F)c4n2)-c2c(c(Cl)cc4[nH]ncc24)CCCOC(=O)O[C@@]2(C)COCCN3C2)CC1` [Example 332, (26R)-18-chloro-4-((1-((dimethylamino)methyl)cyclopropyl)methoxy)-32-fluoro-26-methyl-23,25,28-trioxa-1,3,5,9,14,15-hexaazahexacyclo[24.4.1.1~6,10~.0~2,7~.0~11,19~.0~12,16~]dotriaconta-2,4,6,8,10(32),11,13,16,18-nonaen-24-one], the pIC50 in test [1] (setting [3]) is 5.49; in test [2] (setting [4]), 5.68.
As to `CN1CCC[C@H]1COc1nc2c3cnc(c(F)c3n1)-c1c(c(Cl)cc3[nH]ncc13)CCCOC(=O)O[C@@]1(CF)COCCN2C1` [Example 337, (26R)-18-chloro-32-fluoro-26-(fluoromethyl)-4-(((2S)-1-methyl-2-pyrrolidinyl)methoxy)-23,25,28-trioxa-1,3,5,9,14,15-hexaazahexacyclo[24.4.1.1~6,10~.0~2,7~.0~11,19~.0~12,16~]dotriaconta-2,4,6,8,10(32),11,13,16,18-nonaen-24-one], the pIC50 in test [1] (setting [3]) was 5.61; in test [2] (setting [4]), 6.10.
For `Cn1ncc2cc(Cl)c3c(c21)-c1ncc2c(nc(OC[C@@]45CCCN4C[C@H](F)C5)nc2c1F)N1CCOC[C@H](C1)OC(=O)OCCC3` [Example 364, (26S)-18-chloro-32-fluoro-4-(((2R,7aS)-2-fluorotetrahydro-1H-pyrrolo[1,2-a]pyrrol-7a(5H)-yl)methoxy)-13-methyl-23,25,28-trioxa-1,3,5,9,13,14-hexaazahexacyclo[24.4.1.1~6,10~.0~2,7~.0~11,19~.0~12,16~]dotriaconta-2,4,6,8,10(32),11,14,16,18-nonaen-24-one], the values for the pIC50 in test [1] (setting [3]) and in test [2] (setting [4]) were 6.99 and 7.70, respectively.
`C[C@@]12COCCN(C1)c1nc(OC[C@@]34CCCN3C[C@H](F)C4)nc3c(F)c(ncc13)-c1c3c(cc4[nH]ncc14)CC[C@@H]3CCOC(=O)O2` [Example 366, (16S,22R)-34-fluoro-8-(((2R,7aS)-2-fluorotetrahydro-1H-pyrrolo[1,2-a]pyrrol-7a(5H)-yl)methoxy)-16-methyl-14,17,19-trioxa-3,7,9,11,28,29-hexaazaheptacyclo[20.9.1.1~2,6~.1~11,16~.0~5,10~.0~25,32~.0~27,31~]tetratriaconta-1(31),2(34),3,5,7,9,25(32),26,29-nonaen-18-one]: the values for the pIC50 in test [1] (setting [3]) and in test [2] (setting [4]) were 6.03 and 6.20, respectively.
On the same counts, the results for `O=C1OCC[C@H]2CCc3cc4[nH]ncc4c(c32)-c2ncc3c(nc(OC[C@@]45CCCN4C[C@H](F)C5)nc3c2F)N2CCOC[C@H](C2)O1` [Example 368, (16S,22R)-34-fluoro-8-(((2R,7aS)-2-fluorotetrahydro-1H-pyrrolo[1,2-a]pyrrol-7a(5H)-yl)methoxy)-14,17,19-trioxa-3,7,9,11,28,29-hexaazaheptacyclo[20.9.1.1~2,6~.1~11,16~.0~5,10~.0~25,32~.0~27,31~]tetratriaconta-1(31),2(34),3,5,7,9,25(32),26,29-nonaen-18-one] are 5.91 and 6.11.
As to `O[C@H]1C[C@@H]2CN(C1)c1nc(OC[C@@]34CCCN3C[C@H](F)C4)nc3c(F)c(ncc13)-c1c(c(Cl)cc3[nH]ncc13)CCCc1nc2no1` [Example 378], the pIC50 in test [1] (setting [5]) is 7.47; in test [2] (setting [6]), 7.82.
`Fc1c2ncc3c(nc(OC[C@@]45CCCN4C[C@H](F)C5)nc13)N1CCC[C@@H](C1)c1cnc(o1)CCCc1c(Cl)cc3[nH]ncc3c1-2` [Example 386, (18S)-9-chloro-31-fluoro-25-(((2R,7aS)-2-fluorotetrahydro-1H-pyrrolo[1,2-a]pyrrol-7a(5H)-yl)methoxy)-33-oxa-5,6,15,22,24,26,30-heptaazaheptacyclo[25.3.1.1~14,17~.1~18,22~.0~2,10~.0~3,7~.0~23,28~]tritriaconta-1(31),2,4,7,9,14,16,23,25,27,29-undecaene]: the results for the pIC50 in test [1] (setting [5]) and in test [2] (setting [6]) were 5.43 and 5.74, respectively.
As to `Fc1c2ncc3c(nc(OC[C@@]45CCCN4C[C@H](F)C5)nc13)N1CCO[C@@H](C1)c1coc(n1)CCCc1c(Cl)cc3[nH]ncc3c1-2` [Example 389, (18S)-9-chloro-31-fluoro-25-(((2R,7aS)-2-fluorotetrahydro-1H-pyrrolo[1,2-a]pyrrol-7a(5H)-yl)methoxy)-15,19-dioxa-5,6,22,24,26,30,33-heptaazaheptacyclo[25.3.1.1~14,17~.1~18,22~.0~2,10~.0~3,7~.0~23,28~]tritriaconta-1(31),2,4,7,9,14(33),16,23,25,27,29-undecaene], the pIC50 was 5.40 in test [1] (setting [5]) and 5.99 in test [2] (setting [6]).
Take `Fc1c2ncc3c(nc(OC[C@@]45CCCN4C[C@H](F)C5)nc13)N1CCO[C@@H](COCC[C@H]3C[C@H]3c3c(Cl)cc4[nH]ncc4c3-2)C1` [Example 393, (11R,13R,18R)-9-chloro-31-fluoro-25-(((2R,7aS)-2-fluorotetrahydro-1H-pyrrolo[1,2-a]pyrrol-7a(5H)-yl)methoxy)-16,19-dioxa-5,6,22,24,26,30-hexaazaheptacyclo[25.3.1.1~18,22~.0~2,10~.0~3,7~.0~11,13~.0~23,28~]dotriaconta-1(31),2,4,7,9,23,25,27,29-nonaene]: the pIC50 in test [1] (setting [5]) was 5.74; in test [2] (setting [6]) it was 5.93.
